Laboratory results reported in article PMC3726001 (Bioorganic & medicinal chemistry letters, 2010).
Values after ≈ are worked out from the molar mass of the structure shown.

Tests used:
[1] = target: [3H]DTBZ-binding site on VMAT2 (Rattus norvegicus, UniProt Q01827); test: [3H]DTBZ binding to VMAT2
[2] = Aqueous solubility; type: physicochemical
[3] = target: VMAT2 (Rattus norvegicus, UniProt Q01827); test: Inhibition of [3H]DA uptake into synaptic vesicles; type: biochemical
[4] = test system: (+)-methamphetamine (METH) self-administration; details: rats; effect not surmounted by METH; cited from earlier work
[5] = test system: (+)-METH-induced dopaminergic toxicity; details: rats; repeated administration prior to (+)-METH self-administration; cited from earlier work
[6] = test system: guinea pigs; details: cited from earlier work
[7] = test system: dogs; details: cited from earlier work

Sequence of [3H]DTBZ-binding site on VMAT2 (Q01827 whole entry): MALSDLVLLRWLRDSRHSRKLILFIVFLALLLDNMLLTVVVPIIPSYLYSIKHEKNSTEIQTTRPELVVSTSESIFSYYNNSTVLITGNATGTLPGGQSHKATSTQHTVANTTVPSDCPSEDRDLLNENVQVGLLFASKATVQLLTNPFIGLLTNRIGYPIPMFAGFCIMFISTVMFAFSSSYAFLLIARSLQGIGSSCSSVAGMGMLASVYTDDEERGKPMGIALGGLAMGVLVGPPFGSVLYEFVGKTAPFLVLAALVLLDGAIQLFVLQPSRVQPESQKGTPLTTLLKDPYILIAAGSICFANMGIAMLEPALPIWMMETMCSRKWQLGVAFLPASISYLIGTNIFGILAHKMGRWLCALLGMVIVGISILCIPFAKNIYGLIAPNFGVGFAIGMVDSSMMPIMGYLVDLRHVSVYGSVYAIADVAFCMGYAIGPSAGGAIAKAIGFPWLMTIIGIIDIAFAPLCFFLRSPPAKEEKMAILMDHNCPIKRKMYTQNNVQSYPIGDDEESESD
Sequence of VMAT2 (Q01827 whole entry): as above

Compound: CN1[C@@H](CCc2ccnc3ccccc23)CCC[C@H]1CCc1ccnc2ccccc12.Cl [compound 23]
- binding to the [3H]DTBZ binding site compared to lobelane ([1]; compared to lobelane): almost as avidly as lobelane
- water solubility characteristics compared to lobelane [2]: improved water solubility
- potency in inhibiting [3H]DA uptake compared to lobelane [3]: equipotent with lobelane

Compound: CN1[C@@H](CC(=O)c2ccccc2)CCC[C@H]1C[C@H](O)c1ccccc1 [compound 2, lobeline]
- effect on (+)-METH self-administration [4]: inhibits
- effect on (+)-METH-induced dopaminergic toxicity [5]: prevents

Compound: CN1[C@@H](CCc2ccc3ccccc3n2)CCC[C@H]1CCc1ccc2ccccc2n1.Cl [compound 22]
- affinity for the [3H]DTBZ binding site [1]: submicromolar affinity
- binding to the [3H]DTBZ binding site compared to lobelane ([1]; compared to lobelane): almost as avidly as lobelane
- water solubility characteristics compared to lobelane [2]: improved water solubility
- potency in inhibiting [3H]DA uptake compared to lobelane [3]: equipotent with lobelane

Compound: CN1[C@@H](CCc2ccncc2)CCC[C@H]1CCc1ccncc1 [compound 21]
- binding to the [3H]DTBZ binding site compared to lobelane ([1]; compared to lobelane): marginally lower in binding affinity

Compound: CN1[C@@H](CCc2cccnc2)CCC[C@H]1CCc1cccnc1 [compound 14]
- fold less potent than lobelane in binding to the [3H]DTBZ binding site ([1]; compared to lobelane): about 30 fold

Compound: CN1[C@@H](CCc2c[nH]c3ccccc23)CCC[C@H]1CCc1c[nH]c2ccccc12 [compound 24]
- affinity for the [3H]DTBZ binding site [1]: greatly diminished affinity

Compound: CN1[C@@H](CCc2ccccc2)CCC[C@H]1CCc1ccccc1 [compound 1, N-methyl-cis-2,6-diphenethylpiperidine]
- pharmacological action in guinea pigs [6]: peripheral spasmolytic, ‘central stimulating’ action
- solubility [2]: 300 µg/mL (≈ 976 µM)
- respiratory analeptic activity [7]: marked respiratory analeptic activity
